A short description of the data set: xn = mol fraction of the nth substance listed. The note with it: 298 K, 100 kPa, frequency 0.001 MHz.

Molecules are shown by their SMILES. ± gives the uncertainty stated by the source.

`CCCCCCCCCCCCOS(=O)(=O)[O-].[Na+]` + CC(C)O + O: the electrical conductivity is, setting by setting: (x2 = 0.04868, x3 = 0.9512) 0.0308 ± 0.00058 S/m; (x2 = 0.1358, x3 = 0.8641) 0.0155 ± 0.00052 S/m.

Values taken from the CheMixHub ionic liquid set.
